# In ChEMBL document CHEMBL4609983, “Pan-specific and partially selective dye-labeled peptidic inhibitors of the polycomb paralog proteins” (Bioorg Med Chem, 2020):
# Non-standard residues stand in square brackets, D forms with d. Residues, ends and D or L forms follow the SMILES beside them. *: point of attachment. X1 = O=C(O)c1cc(NC(=S)*)ccc1-c1c2ccc(=O)cc-2oc2cc(O)ccc12; Lys(Me3) = C[N+](C)(C)CCCC[C@H](N)C(=O)O; Benzoyl(4-Br) = O=C(c1ccc(Br)cc1)*; Gly(cPent) = N[C@H](C(=O)O)C1CCCC1; Abu = CC[C@H](N)C(=O)O; βAla = NCCC(=O)O
# Columns and labels:
# [1] = target: T1, E3 SUMO-protein ligase CBX4 (Homo sapiens, UniProt O00257); test: Binding affinity to CBX4 (unknown origin) assessed as dissociation constant by fluorescence polarization analysis
# T1 sequence (O00257 whole entry): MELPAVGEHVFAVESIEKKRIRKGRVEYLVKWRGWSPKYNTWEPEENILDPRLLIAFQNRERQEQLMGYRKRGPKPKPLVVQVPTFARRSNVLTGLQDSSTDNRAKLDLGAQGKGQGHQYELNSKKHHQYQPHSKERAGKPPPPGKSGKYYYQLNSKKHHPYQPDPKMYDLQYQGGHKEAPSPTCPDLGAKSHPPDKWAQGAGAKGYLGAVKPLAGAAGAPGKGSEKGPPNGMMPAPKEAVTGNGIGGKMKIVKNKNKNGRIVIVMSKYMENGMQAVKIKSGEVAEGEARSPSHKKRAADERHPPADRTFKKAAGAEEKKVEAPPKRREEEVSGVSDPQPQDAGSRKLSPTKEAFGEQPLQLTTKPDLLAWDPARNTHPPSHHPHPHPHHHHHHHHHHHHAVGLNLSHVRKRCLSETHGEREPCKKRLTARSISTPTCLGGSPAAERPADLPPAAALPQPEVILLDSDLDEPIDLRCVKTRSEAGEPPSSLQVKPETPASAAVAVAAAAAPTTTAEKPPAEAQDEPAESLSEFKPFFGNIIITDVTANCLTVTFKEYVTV
# [2] = target: T2, Chromobox protein homolog 2 (Homo sapiens, UniProt Q14781); test: Binding affinity to CBX2 (unknown origin) assessed as dissociation constant by fluorescence polarization analysis
# T2 sequence (Q14781 whole entry): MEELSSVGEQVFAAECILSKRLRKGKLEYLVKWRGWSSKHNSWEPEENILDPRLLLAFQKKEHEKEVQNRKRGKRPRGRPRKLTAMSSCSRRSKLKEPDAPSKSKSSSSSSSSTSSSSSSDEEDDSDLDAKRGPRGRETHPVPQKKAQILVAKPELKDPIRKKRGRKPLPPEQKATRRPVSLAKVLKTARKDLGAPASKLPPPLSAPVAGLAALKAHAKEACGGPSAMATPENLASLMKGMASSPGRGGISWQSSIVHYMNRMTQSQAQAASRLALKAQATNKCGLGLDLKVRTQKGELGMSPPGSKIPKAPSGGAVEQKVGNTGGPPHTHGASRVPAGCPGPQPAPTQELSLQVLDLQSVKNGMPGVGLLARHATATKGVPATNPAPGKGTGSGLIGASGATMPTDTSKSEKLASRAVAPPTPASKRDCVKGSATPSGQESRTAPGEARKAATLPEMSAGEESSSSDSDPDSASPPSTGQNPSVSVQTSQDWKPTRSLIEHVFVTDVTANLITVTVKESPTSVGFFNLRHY
# [3] = target: Chromobox protein homolog 1 (Homo sapiens, UniProt P83916); test: Binding affinity to CBX1 (unknown origin) assessed as dissociation constant by fluorescence polarization analysis
# [4] = target: T3, Chromobox protein homolog 7 (Homo sapiens, UniProt O95931); test: Binding affinity to CBX7 (unknown origin) assessed as dissociation constant by fluorescence polarization analysis
# T3 sequence (O95931 whole entry): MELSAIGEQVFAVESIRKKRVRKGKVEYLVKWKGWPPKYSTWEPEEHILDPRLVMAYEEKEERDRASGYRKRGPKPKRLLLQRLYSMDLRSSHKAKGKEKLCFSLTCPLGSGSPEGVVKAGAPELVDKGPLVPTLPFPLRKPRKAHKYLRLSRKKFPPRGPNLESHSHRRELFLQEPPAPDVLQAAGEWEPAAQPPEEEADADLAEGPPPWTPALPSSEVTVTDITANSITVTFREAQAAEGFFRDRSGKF
# [5] = target: T4, Chromobox protein homolog 6 (Homo sapiens, UniProt O95503); test: Binding affinity to CBX6 (unknown origin) assessed as dissociation constant by fluorescence polarization analysis
# T4 sequence (O95503 whole entry): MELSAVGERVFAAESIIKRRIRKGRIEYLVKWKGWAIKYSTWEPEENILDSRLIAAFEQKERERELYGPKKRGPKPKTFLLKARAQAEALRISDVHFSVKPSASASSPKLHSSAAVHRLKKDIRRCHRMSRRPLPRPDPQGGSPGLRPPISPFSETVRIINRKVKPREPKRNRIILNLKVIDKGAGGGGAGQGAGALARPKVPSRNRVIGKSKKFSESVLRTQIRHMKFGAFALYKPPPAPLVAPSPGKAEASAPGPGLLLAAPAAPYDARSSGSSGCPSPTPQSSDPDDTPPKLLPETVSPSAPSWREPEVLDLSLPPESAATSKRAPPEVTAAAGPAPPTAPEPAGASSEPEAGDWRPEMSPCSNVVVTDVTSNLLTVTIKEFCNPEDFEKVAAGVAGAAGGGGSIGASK
# [6] = target: T5, Chromobox protein homolog 8 (Homo sapiens, UniProt Q9HC52); test: Binding affinity to CBX8 (unknown origin) assessed as dissociation constant by fluorescence polarization analysis
# T5 sequence (Q9HC52 whole entry): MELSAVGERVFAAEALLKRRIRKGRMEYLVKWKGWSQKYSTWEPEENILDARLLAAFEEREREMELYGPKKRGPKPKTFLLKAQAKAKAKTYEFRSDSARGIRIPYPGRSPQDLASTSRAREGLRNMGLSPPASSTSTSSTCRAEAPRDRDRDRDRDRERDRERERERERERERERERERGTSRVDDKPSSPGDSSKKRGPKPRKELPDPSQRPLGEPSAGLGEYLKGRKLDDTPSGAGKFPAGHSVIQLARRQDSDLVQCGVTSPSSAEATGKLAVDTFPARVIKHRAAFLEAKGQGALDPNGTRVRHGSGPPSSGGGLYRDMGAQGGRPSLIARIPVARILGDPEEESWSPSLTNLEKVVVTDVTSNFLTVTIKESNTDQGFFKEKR
# Homo sapiens [7] = organism: Homo sapiens; test: Selectivity ratio of Kd for CBX4 (unknown origin) to Kd for CBX8 (unknown origin)
# Homo sapiens [8] = organism: Homo sapiens; test: Selectivity ratio of Kd for CBX7 (unknown origin) to Kd for CBX6 (unknown origin)
# Homo sapiens [9] = organism: Homo sapiens; test: Selectivity ratio of Kd for CBX7 (unknown origin) to Kd for CBX8 (unknown origin)
# Homo sapiens [10] = organism: Homo sapiens; test: Selectivity ratio of Kd for CBX1 (unknown origin) to Kd for CBX8 (unknown origin)
# Homo sapiens [11] = organism: Homo sapiens; test: Selectivity ratio of Kd for CBX2 (unknown origin) to Kd for CBX8 (unknown origin)
# [12] = target: T5, Chromobox protein homolog 8; test: Inhibition of CBX8 (unknown origin) assessed as […] by competitive FP assay
# [13] = target: T3, Chromobox protein homolog 7; test: Inhibition of CBX7 (unknown origin) assessed as […] by competitive FP assay
# Homo sapiens [14] = organism: Homo sapiens; test: Selectivity ratio of IC50 for CBX8 (unknown origin) to IC50 for CBX7 (unknown origin)
# Homo sapiens [15] = organism: Homo sapiens; test: Selectivity ratio of IC50 for CBX6 (unknown origin) to IC50 for CBX7 (unknown origin)
# [16] = target: T4, Chromobox protein homolog 6; test: Inhibition of CBX6 (unknown origin) assessed as […] by competitive FP assay
# TOV21G = test: Decrease in cell viability in human TOV21G cells by MTT assay; type: cell-based
# [17] = Drug uptake in cytoplasm of human PC3 cells by live cell imaging analysis; type: ADME, cell-based; conditions: pc-3
# [18] = Drug uptake in nucleus of human PC3 cells by live cell imaging analysis; type: ADME, cell-based; conditions: pc-3
# [19] = Drug uptake in cytoplasm of human TOV21G cells by live cell imaging analysis; type: ADME, cell-based
# [20] = Drug uptake in nucleus of human TOV21G cells by live cell imaging analysis; type: ADME, cell-based
# [21] = Drug uptake in human TOV21G cells assessed as endosomal entrapment by measuring characteristic punctate dots in the cytoplasm at 10 uM by cell imaging analysis; type: ADME, cell-based
# [22] = Drug uptake in human PC3 cells assessed as endosomal entrapment by measuring characteristic punctate dots in the cytoplasm at 10 uM by cell imaging analysis; type: ADME, cell-based; conditions: pc-3, 10 µM
# Homo sapiens [23] = organism: Homo sapiens; test: Selectivity ratio of Kd for CBX6 (unknown origin) to Kd for CBX8 (unknown origin)
# Sequence of Chromobox protein homolog 1 (P83916 whole entry): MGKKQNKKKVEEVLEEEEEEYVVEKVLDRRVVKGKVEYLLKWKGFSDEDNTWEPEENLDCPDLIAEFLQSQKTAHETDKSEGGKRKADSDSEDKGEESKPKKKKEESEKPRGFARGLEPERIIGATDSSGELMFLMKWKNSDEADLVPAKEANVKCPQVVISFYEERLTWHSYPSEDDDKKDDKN
Kd [1],Kd [2],Kd [3],Kd [4],Kd [5],Kd [6],IC50 [12],IC50 [13],IC50 [16],SMILES,Activity (TOV21G),further results
15000 nM,18000 nM,110000 nM,1500 nM,1000 nM,2600 nM,,,,CC(=O)N[C@@H](Cc1ccccc1)C(=O)N[C@@H](Cc1ccccc1)C(=O)N[C@@H](C)C(=O)N[C@@H](CC(C)C)C(=O)N[C@@H](CCCC[N+](C)(C)C)C(=O)N[C@@H](CO)C(=O)N[C@@H](CCC(=O)O)C(=O)N[C@@H](CCCCNC(=S)Nc1ccc(-c2c3ccc(=O)cc-3oc3cc(O)ccc23)c(C(=O)O)c1)C(N)=O (Ac-FFAL[Lys(Me3)]SEK(X1)-NH2),,
11300 nM,10000 nM,99000 nM,1500 nM,400 nM,700 nM,,,,CC[C@H](NC(=O)[C@H](Cc1ccccc1)NC(=O)[C@H](Cc1ccccc1)NC(C)=O)C(=O)N[C@H](C(=O)N[C@@H](CCCC[N+](C)(C)C)C(=O)N[C@@H](CO)C(=O)N[C@@H](CCC(=O)O)C(=O)N[C@@H](CCCCNC(=S)Nc1ccc(-c2c3ccc(=O)cc-3oc3cc(O)ccc23)c(C(=O)O)c1)C(N)=O)C1CCCC1 (Ac-FF[Abu][Gly(cPent)][Lys(Me3)]SEK(X1)-NH2),,Selectivity ratio (Homo sapiens [7]): 14 to 135; Selectivity ratio (Homo sapiens [8]): 4; Selectivity ratio (Homo sapiens [9]): 2; Selectivity ratio (Homo sapiens [10]): 14 to 135; Selectivity ratio (Homo sapiens [11]): 14 to 135
,,,,,,42000 nM,2300 nM,16000 nM,C[C@H](NC(=O)[C@H](Cc1ccccc1)NC(=O)c1ccc(Br)cc1)C(=O)N[C@@H](Cc1ccc(O)cc1)C(=O)N[C@@H](CCCC[N+](C)(C)C)C(=O)N[C@@H](CO)C(N)=O ({Benzoyl(4-Br)}-FAY[Lys(Me3)]S-NH2),,Ratio IC50 (Homo sapiens [14]): 18; Ratio IC50 (Homo sapiens [15]): 7
,,,,,,12000 nM,2000 nM,6000 nM,C[C@H](NC(=O)[C@H](Cc1ccccc1)NC(=O)c1ccc(Br)cc1)C(=O)N[C@@H](Cc1ccc(O)cc1)C(=O)N[C@@H](CCCC[N+](C)(C)C)C(=O)N[C@@H](CO)C(=O)N[C@@H](CCC(=O)O)C(N)=O ({Benzoyl(4-Br)}-FAY[Lys(Me3)]SE-NH2),Non-Toxic,
,,4750 nM,12 nM,47 nM,624 nM,,,,C[C@H](NC(=O)[C@H](Cc1ccccc1)NC(=O)c1ccc(Br)cc1)C(=O)N[C@@H](Cc1ccc(O)cc1)C(=O)N[C@@H](CCCC[N+](C)(C)C)C(=O)N[C@@H](CO)C(=O)N[C@@H](CCC(=O)O)C(=O)N[C@@H](CCCCNC(=S)Nc1ccc(-c2c3ccc(=O)cc-3oc3cc(O)ccc23)c(C(=O)O)c1)C(N)=O ({Benzoyl(4-Br)}-FAY[Lys(Me3)]SEK(X1)-NH2),Toxic,Drug uptake [17]: Not Active; Drug uptake [18]: Not Active; Drug uptake [19]: Not Active; Drug uptake [20]: Not Active; Drug uptake [21]: Active; Drug uptake [22]: Active
,,,,,,19000 nM,1100 nM,13000 nM,CC(C)C[C@H](NC(=O)[C@H](CO)NC(=O)[C@H](CCCC[N+](C)(C)C)NC(=O)[C@H](Cc1ccc(O)cc1)NC(=O)[C@H](C)NC(=O)[C@H](Cc1ccccc1)NC(=O)c1ccc(Br)cc1)C(N)=O ({Benzoyl(4-Br)}-FAY[Lys(Me3)]SL-NH2),Non-Toxic,
,,1750 nM,11 nM,78 nM,890 nM,,,,CC(C)C[C@H](NC(=O)[C@H](CO)NC(=O)[C@H](CCCC[N+](C)(C)C)NC(=O)[C@H](Cc1ccc(O)cc1)NC(=O)[C@H](C)NC(=O)[C@H](Cc1ccccc1)NC(=O)c1ccc(Br)cc1)C(=O)N[C@@H](CCCCNC(=S)Nc1ccc(-c2c3ccc(=O)cc-3oc3cc(O)ccc23)c(C(=O)O)c1)C(N)=O ({Benzoyl(4-Br)}-FAY[Lys(Me3)]SLK(X1)-NH2),,
700 nM,1500 nM,180000 nM,300 nM,800 nM,960 nM,,,,CC[C@H](NC(=O)[C@H](Cc1ccccc1)NC(=O)c1ccc(Br)cc1)C(=O)N[C@@H](Cc1ccccc1)C(=O)N[C@@H](CCCC[N+](C)(C)C)C(=O)N[C@@H](CO)C(=O)N[C@@H](CCC(=O)O)C(=O)N[C@@H](CCCCNC(=S)Nc1ccc(-c2c3ccc(=O)cc-3oc3cc(O)ccc23)c(C(=O)O)c1)C(N)=O ({Benzoyl(4-Br)}-F[Abu]F[Lys(Me3)]SEK(X1)-NH2),,
600 nM,390 nM,3200 nM,160 nM,350 nM,120 nM,,,,CC[C@H](NC(=O)[C@H](Cc1ccccc1)NC(=O)c1ccc(Br)cc1)C(=O)N[C@H](C(=O)N[C@@H](CCCC[N+](C)(C)C)C(=O)N[C@@H](CO)C(=O)N[C@@H](CCC(=O)O)C(=O)N[C@@H](CCCCNC(=S)Nc1ccc(-c2c3ccc(=O)cc-3oc3cc(O)ccc23)c(C(=O)O)c1)C(N)=O)C1CCCC1 ({Benzoyl(4-Br)}-F[Abu][Gly(cPent)][Lys(Me3)]SEK(X1)-NH2),,Selectivity ratio (Homo sapiens [7]): 5; Selectivity ratio (Homo sapiens [23]): 3; Selectivity ratio (Homo sapiens [9]): 2; Selectivity ratio (Homo sapiens [10]): 26; Selectivity ratio (Homo sapiens [11]): 3
800 nM,1100 nM,2500 nM,700 nM,900 nM,4500 nM,,,,CC(C)C[C@H](NC(=O)[C@H](C)NC(=O)[C@H](Cc1ccccc1)NC(=O)CCNC(=S)Nc1ccc(-c2c3ccc(=O)cc-3oc3cc(O)ccc23)c(C(=O)O)c1)C(=O)N[C@@H](CCCC[N+](C)(C)C)C(=O)N[C@@H](CO)C(N)=O ({X1-βAla}-FAL[Lys(Me3)]S-NH2),,
